In patent publication US12427157B2, “Methods for treatment of diseases involving acidic or hypoxic diseased tissues” (Cybrexa 1, Inc., priority 2018, dated 2025):
Residues, ends and D or L forms follow the SMILES beside them. *: point of attachment. X24 = CN(Cc1ccc(-c2[nH]c3cc(F)cc4c3c2CCNC4=O)cc1)C(=O)O[C@H](CS*)c1ccccc1; X17 = C[C@@H](COC(=O)N1CCC[C@@H](c2ccc(-n3cc4cccc(C(N)=O)c4n3)cc2)C1)S*; X10 = Cc1cc(COC(=O)N(C)Cc2ccc(-c3[nH]c4cc(F)cc5c4c3CCNC5=O)cc2)ccc1S*; X15 = Cc1cc(S*)ccc1COC(=O)N(C)Cc1ccc(-c2[nH]c3cc(F)cc4c3c2CCNC4=O)cc1; X9 = C[C@@H](COC(=O)N(C)Cc1ccc(-c2[nH]c3cc(F)cc4c3c2CCNC4=O)cc1)S*; X20 = C[C@]12CCCN1C1=NNC(=O)c3cc(F)cc4c3c1c(n4CNC(=O)OCCS*)C2

What follows are molecules tested against PARP (Homo sapiens, UniProt P09874) (assay: Enzymatic Assay 2: HT Universal Chemiluminescent PARP Assay of cleaved compounds). Details: read-out: IC50 Enzymatic Assay 2; Examples cleaved per Example A (crude cleavage solution); R^8H starting materials as such.
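Also: PARP reaction with activated DNA run 1 h at room temperature, product detected via streptavidin-HRP and luminescence endpoint reading on a plate reader.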

Chain of PARP (P09874 whole entry): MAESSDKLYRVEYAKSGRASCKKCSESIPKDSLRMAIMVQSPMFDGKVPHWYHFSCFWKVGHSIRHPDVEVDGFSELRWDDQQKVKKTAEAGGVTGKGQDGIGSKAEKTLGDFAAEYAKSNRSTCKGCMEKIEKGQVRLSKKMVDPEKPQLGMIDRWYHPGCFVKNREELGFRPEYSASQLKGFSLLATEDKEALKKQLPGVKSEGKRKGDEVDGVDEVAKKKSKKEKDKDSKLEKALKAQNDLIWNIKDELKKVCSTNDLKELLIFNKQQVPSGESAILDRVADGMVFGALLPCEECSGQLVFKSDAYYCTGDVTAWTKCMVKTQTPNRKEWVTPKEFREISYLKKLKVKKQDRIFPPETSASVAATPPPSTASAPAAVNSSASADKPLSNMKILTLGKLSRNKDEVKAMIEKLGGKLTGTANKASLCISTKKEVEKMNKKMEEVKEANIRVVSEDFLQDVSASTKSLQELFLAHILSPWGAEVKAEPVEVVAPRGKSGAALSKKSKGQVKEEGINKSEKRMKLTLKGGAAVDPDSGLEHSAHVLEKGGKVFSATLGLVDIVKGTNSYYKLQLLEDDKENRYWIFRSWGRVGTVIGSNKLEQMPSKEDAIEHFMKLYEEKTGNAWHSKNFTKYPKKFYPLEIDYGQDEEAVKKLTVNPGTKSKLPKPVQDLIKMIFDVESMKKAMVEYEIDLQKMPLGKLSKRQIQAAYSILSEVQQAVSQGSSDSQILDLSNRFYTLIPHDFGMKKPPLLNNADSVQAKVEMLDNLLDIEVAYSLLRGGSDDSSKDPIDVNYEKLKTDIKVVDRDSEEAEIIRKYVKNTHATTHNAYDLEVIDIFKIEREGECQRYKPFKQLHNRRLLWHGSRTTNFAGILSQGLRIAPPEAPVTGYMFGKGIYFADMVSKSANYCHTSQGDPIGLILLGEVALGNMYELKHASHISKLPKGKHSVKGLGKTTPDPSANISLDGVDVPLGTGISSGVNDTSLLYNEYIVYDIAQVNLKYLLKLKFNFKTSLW

**Q.** With `CC[C@H](C)[C@H](NC(=O)[C@@H]1CCCN1C(=O)[C@H](CC(N)=O)NC(=O)[C@H](CCC(N)=O)NC(=O)[C@H](CCC(=O)O)NC(=O)[C@H](C)N)C(=O)N[C@@H](Cc1ccc(O)cc1)C(=O)N[C@@H](Cc1c[nH]c2ccccc12)C(=O)N[C@@H](C)C(=O)N[C@@H](CCCNC(=N)N)C(=O)N[C@@H](Cc1ccc(O)cc1)C(=O)N[C@@H](C)C(=O)N[C@@H](CC(=O)O)C(=O)N[C@@H](Cc1c[nH]c2ccccc12)C(=O)N[C@@H](CC(C)C)C(=O)N[C@@H](Cc1ccccc1)C(=O)N[C@H](C(=O)N[C@H](C(=O)N1CCC[C@H]1C(=O)N[C@@H](CC(C)C)C(=O)N[C@@H](CC(C)C)C(=O)N[C@@H](CC(C)C)C(=O)N[C@@H](CC(C)C)C(=O)N[C@@H](CC(=O)O)C(=O)N[C@@H](CC(C)C)C(=O)N[C@@H](C)C(=O)N[C@@H](CC(C)C)C(=O)N[C@@H](CC(C)C)C(=O)N[C@H](C(=O)N[C@@H](CC(=O)O)C(=O)N[C@@H](C)C(=O)N[C@@H](CC(=O)O)C(=O)N[C@@H](CCC(=O)O)C(=O)N[C@@H](CSSCCOC(=O)NCn1c2c3c4c(cc(F)cc41)C(=O)NN=C3N1CCC[C@]1(C)C2)C(=O)NCC(=O)O)C(C)C)[C@@H](C)O)[C@@H](C)O` [Example 38] (H-AEQNPIYWARYADWLFTTPLLLLDLALLVDADEC(X20)G-OH; N-terminus and C-terminus assumed) as the molecule, how does the IC50 read?
**A.** 2.8 nM

**Q.** For `CC[C@H](C)[C@H](NC(=O)[C@@H]1CCCN1C(=O)[C@H](CC(N)=O)NC(=O)[C@H](CCC(N)=O)NC(=O)[C@H](CCC(=O)O)NC(=O)[C@H](C)N)C(=O)N[C@@H](Cc1ccc(O)cc1)C(=O)N[C@@H](Cc1c[nH]c2ccccc12)C(=O)N[C@@H](C)C(=O)N[C@@H](CCCNC(=N)N)C(=O)N[C@@H](Cc1ccc(O)cc1)C(=O)N[C@@H](C)C(=O)N[C@@H](CC(=O)O)C(=O)N[C@@H](Cc1c[nH]c2ccccc12)C(=O)N[C@@H](CC(C)C)C(=O)N[C@@H](Cc1ccccc1)C(=O)N[C@H](C(=O)N[C@H](C(=O)N1CCC[C@H]1C(=O)N[C@@H](CC(C)C)C(=O)N[C@@H](CC(C)C)C(=O)N[C@@H](CC(C)C)C(=O)N[C@@H](CC(C)C)C(=O)N[C@@H](CC(=O)O)C(=O)N[C@@H](CC(C)C)C(=O)N[C@@H](C)C(=O)N[C@@H](CC(C)C)C(=O)N[C@@H](CC(C)C)C(=O)N[C@H](C(=O)N[C@@H](CC(=O)O)C(=O)N[C@@H](C)C(=O)N[C@@H](CC(=O)O)C(=O)N[C@@H](CCC(=O)O)C(=O)N[C@@H](CSSc1ccc(COC(=O)N(C)Cc2ccc(-c3[nH]c4cc(F)cc5c4c3CCNC5=O)cc2)cc1C)C(=O)NCC(=O)O)C(C)C)[C@@H](C)O)[C@@H](C)O` [Example 29] (H-AEQNPIYWARYADWLFTTPLLLLDLALLVDADEC(X10)G-OH; N-terminus and C-terminus assumed), which IC50 is on record?
**A.** 6.4 nM

**Q.** With `CC(C)C[C@H](NC(=O)[C@H](Cc1ccc(O)cc1)NC(=O)[C@H](C)NC(=O)[C@H](CCCNC(=N)N)NC(=O)[C@H](Cc1c[nH]c2ccccc12)NC(=O)[C@@H]1CCCN1C(=O)[C@H](CC(N)=O)NC(=O)[C@H](CCC(N)=O)NC(=O)[C@H](CC(=O)O)NC(=O)[C@H](CC(=O)O)NC(=O)[C@H](C)N)C(=O)N[C@@H](CC(=O)O)C(=O)N[C@@H](CC(C)C)C(=O)N[C@@H](CC(C)C)C(=O)N[C@@H](Cc1ccccc1)C(=O)N1CCC[C@H]1C(=O)N[C@H](C(=O)N[C@@H](CC(=O)O)C(=O)N[C@H](C(=O)N[C@@H](CC(C)C)C(=O)N[C@@H](CC(C)C)C(=O)N[C@@H](CC(C)C)C(=O)N[C@@H](CC(=O)O)C(=O)N[C@@H](CC(C)C)C(=O)N[C@@H](CC(C)C)C(=O)N[C@@H](Cc1c[nH]c2ccccc12)C(=O)N[C@@H](CSS[C@H](C)COC(=O)N(C)Cc1ccc(-c2[nH]c3cc(F)cc4c3c2CCNC4=O)cc1)C(=O)NCC(=O)O)[C@@H](C)O)[C@@H](C)O` [Example 18] as the molecule, how does the IC50 read?
**A.** 1.1 nM

**Q.** `CC[C@H](C)[C@H](NC(=O)[C@@H]1CCCN1C(=O)[C@H](CC(N)=O)NC(=O)[C@H](CCC(N)=O)NC(=O)[C@H](CCC(=O)O)NC(=O)[C@H](C)N)C(=O)N[C@@H](Cc1ccc(O)cc1)C(=O)N[C@@H](Cc1c[nH]c2ccccc12)C(=O)N[C@@H](C)C(=O)N[C@@H](CCCNC(=N)N)C(=O)N[C@@H](Cc1ccc(O)cc1)C(=O)N[C@@H](C)C(=O)N[C@@H](CC(=O)O)C(=O)N[C@@H](Cc1c[nH]c2ccccc12)C(=O)N[C@@H](CC(C)C)C(=O)N[C@@H](Cc1ccccc1)C(=O)N[C@H](C(=O)N[C@H](C(=O)N1CCC[C@H]1C(=O)N[C@@H](CC(C)C)C(=O)N[C@@H](CC(C)C)C(=O)N[C@@H](CC(C)C)C(=O)N[C@@H](CC(C)C)C(=O)N[C@@H](CC(=O)O)C(=O)N[C@@H](CC(C)C)C(=O)N[C@@H](C)C(=O)N[C@@H](CC(C)C)C(=O)N[C@@H](CC(C)C)C(=O)N[C@H](C(=O)N[C@@H](CC(=O)O)C(=O)N[C@@H](C)C(=O)N[C@@H](CC(=O)O)C(=O)N[C@@H](CCC(=O)O)C(=O)N[C@@H](CSS[C@@H](C)COC(=O)N1CCC[C@@H](c2ccc(-n3cc4cccc(C(N)=O)c4n3)cc2)C1)C(=O)NCC(=O)O)C(C)C)[C@@H](C)O)[C@@H](C)O` [Example 48] (H-AEQNPIYWARYADWLFTTPLLLLDLALLVDADEC(X17)G-OH; N-terminus and C-terminus assumed) was tested. Which IC50 did it give?
**A.** 2.1 nM

**Q.** With `CC[C@H](C)[C@H](NC(=O)[C@@H]1CCCN1C(=O)[C@H](CC(N)=O)NC(=O)[C@H](CCC(N)=O)NC(=O)[C@H](CCC(=O)O)NC(=O)[C@H](C)N)C(=O)N[C@@H](Cc1ccc(O)cc1)C(=O)N[C@@H](Cc1c[nH]c2ccccc12)C(=O)N[C@@H](C)C(=O)N[C@@H](CCCNC(=N)N)C(=O)N[C@@H](Cc1ccc(O)cc1)C(=O)N[C@@H](C)C(=O)N[C@@H](CC(=O)O)C(=O)N[C@@H](Cc1c[nH]c2ccccc12)C(=O)N[C@@H](CC(C)C)C(=O)N[C@@H](Cc1ccccc1)C(=O)N[C@H](C(=O)N[C@H](C(=O)N1CCC[C@H]1C(=O)N[C@@H](CC(C)C)C(=O)N[C@@H](CC(C)C)C(=O)N[C@@H](CC(C)C)C(=O)N[C@@H](CC(C)C)C(=O)N[C@@H](CC(=O)O)C(=O)N[C@@H](CC(C)C)C(=O)N[C@@H](C)C(=O)N[C@@H](CC(C)C)C(=O)N[C@@H](CC(C)C)C(=O)N[C@H](C(=O)N[C@@H](CC(=O)O)C(=O)N[C@@H](C)C(=O)N[C@@H](CC(=O)O)C(=O)N[C@@H](CCC(=O)O)C(=O)N[C@@H](CSSC[C@@H](OC(=O)N(C)Cc1ccc(-c2[nH]c3cc(F)cc4c3c2CCNC4=O)cc1)c1ccccc1)C(=O)NCC(=O)O)C(C)C)[C@@H](C)O)[C@@H](C)O` [Example 25] (H-AEQNPIYWARYADWLFTTPLLLLDLALLVDADEC(X24)G-OH; N-terminus and C-terminus assumed) as the molecule, how does the IC50 read?
**A.** 3.4 nM

**Q.** For `CC[C@H](C)[C@H](NC(=O)[C@@H]1CCCN1C(=O)[C@H](CC(N)=O)NC(=O)[C@H](CCC(N)=O)NC(=O)[C@H](CCC(=O)O)NC(=O)[C@H](C)N)C(=O)N[C@@H](Cc1ccc(O)cc1)C(=O)N[C@@H](Cc1c[nH]c2ccccc12)C(=O)N[C@@H](C)C(=O)N[C@@H](CCCNC(=N)N)C(=O)N[C@@H](Cc1ccc(O)cc1)C(=O)N[C@@H](C)C(=O)N[C@@H](CC(=O)O)C(=O)N[C@@H](Cc1c[nH]c2ccccc12)C(=O)N[C@@H](CC(C)C)C(=O)N[C@@H](Cc1ccccc1)C(=O)N[C@H](C(=O)N[C@H](C(=O)N1CCC[C@H]1C(=O)N[C@@H](CC(C)C)C(=O)N[C@@H](CC(C)C)C(=O)N[C@@H](CC(C)C)C(=O)N[C@@H](CC(C)C)C(=O)N[C@@H](CC(=O)O)C(=O)N[C@@H](CC(C)C)C(=O)N[C@@H](C)C(=O)N[C@@H](CC(C)C)C(=O)N[C@@H](CC(C)C)C(=O)N[C@H](C(=O)N[C@@H](CC(=O)O)C(=O)N[C@@H](C)C(=O)N[C@@H](CC(=O)O)C(=O)N[C@@H](CCC(=O)O)C(=O)N[C@@H](CSS[C@@H](C)COC(=O)N(C)Cc1ccc(-c2[nH]c3cc(F)cc4c3c2CCNC4=O)cc1)C(=O)NCC(=O)O)C(C)C)[C@@H](C)O)[C@@H](C)O` [Example 22] (H-AEQNPIYWARYADWLFTTPLLLLDLALLVDADEC(X9)G-OH; N-terminus and C-terminus assumed), which IC50 is on record?
**A.** 1.8 nM

**Q.** For `CC[C@H](C)[C@H](NC(=O)[C@@H]1CCCN1C(=O)[C@H](CC(N)=O)NC(=O)[C@H](CCC(N)=O)NC(=O)[C@H](CCC(=O)O)NC(=O)[C@H](C)N)C(=O)N[C@@H](Cc1ccc(O)cc1)C(=O)N[C@@H](Cc1c[nH]c2ccccc12)C(=O)N[C@@H](C)C(=O)N[C@@H](CCCNC(=N)N)C(=O)N[C@@H](Cc1ccc(O)cc1)C(=O)N[C@@H](C)C(=O)N[C@@H](CC(=O)O)C(=O)N[C@@H](Cc1c[nH]c2ccccc12)C(=O)N[C@@H](CC(C)C)C(=O)N[C@@H](Cc1ccccc1)C(=O)N[C@H](C(=O)N[C@H](C(=O)N1CCC[C@H]1C(=O)N[C@@H](CC(C)C)C(=O)N[C@@H](CC(C)C)C(=O)N[C@@H](CC(C)C)C(=O)N[C@@H](CC(C)C)C(=O)N[C@@H](CC(=O)O)C(=O)N[C@@H](CC(C)C)C(=O)N[C@@H](C)C(=O)N[C@@H](CC(C)C)C(=O)N[C@@H](CC(C)C)C(=O)N[C@H](C(=O)N[C@@H](CC(=O)O)C(=O)N[C@@H](C)C(=O)N[C@@H](CC(=O)O)C(=O)N[C@@H](CCC(=O)O)C(=O)N[C@@H](CSSc1ccc(COC(=O)N(C)Cc2ccc(-c3[nH]c4cc(F)cc5c4c3CCNC5=O)cc2)c(C)c1)C(=O)NCC(=O)O)C(C)C)[C@@H](C)O)[C@@H](C)O` [Example 30] (H-AEQNPIYWARYADWLFTTPLLLLDLALLVDADEC(X15)G-OH; N-terminus and C-terminus assumed), which IC50 is on record?
**A.** 2.9 nM

**Q.** Which IC50 does the source give for `CC(C)C[C@H](NC(=O)[C@H](Cc1ccc(O)cc1)NC(=O)[C@H](C)NC(=O)[C@H](CCCNC(=N)N)NC(=O)[C@H](Cc1c[nH]c2ccccc12)NC(=O)[C@@H]1CCCN1C(=O)[C@H](CC(N)=O)NC(=O)[C@H](CCC(N)=O)NC(=O)[C@H](CC(=O)O)NC(=O)[C@H](CC(=O)O)NC(=O)[C@H](C)N)C(=O)N[C@@H](CC(=O)O)C(=O)N[C@@H](CC(C)C)C(=O)N[C@@H](CC(C)C)C(=O)N[C@@H](Cc1ccccc1)C(=O)N1CCC[C@H]1C(=O)N[C@H](C(=O)N[C@@H](CC(=O)O)C(=O)N[C@H](C(=O)N[C@@H](CC(C)C)C(=O)N[C@@H](CC(C)C)C(=O)N[C@@H](CC(C)C)C(=O)N[C@@H](CC(=O)O)C(=O)N[C@@H](CC(C)C)C(=O)N[C@@H](CC(C)C)C(=O)N[C@@H](Cc1c[nH]c2ccccc12)C(=O)N[C@@H](CC(=O)O)C(=O)N[C@@H](C)C(=O)N[C@@H](CC(=O)O)C(=O)N[C@@H](CCC(=O)O)C(=O)N[C@@H](CSS[C@@H](C)COC(=O)N(C)Cc1ccc(-c2[nH]c3cc(F)cc4c3c2CCNC4=O)cc1)C(=O)NCC(=O)O)[C@@H](C)O)[C@@H](C)O` [Example 23] here?
**A.** 2.5 nM
